Measurements: patent publication US11827616B2, “Heterocyclic compounds as pesticides” (Discovery Purchaser Corporation, priority 2018, dated 2023)
Like-named read-outs stand apart in the source and are kept apart here.

Experiments:
Type in all cases: in vivo
[1] = tested on: Aedes aegypti strain MONHEIM; assay: Aedes test (AEDSAE surface treatment); conditions: read-out: efficacy (mortality in %)
Protocol: Aedes Test (AEDSAE Surface Treatment)
(§1) Solvent: acetone+2000 ppm rapeseed oil methyl ester (RME)
To produce an appropriate active compound formulation, the active compound is dissolved in the solvent (2 mg/ml). The active compound formulation is pipetted onto a glazed tile and, after it has dried off, adult mosquitoes of the species Aedes aegypti strain MONHEIM are placed onto the treated tile. The exposure time is 30 minutes. 24 hours after contact with the treated surface, mortality in % is determined. 100% means that all mosquitoes have been killed; 0% means that none of the mosquitoes have been killed.

[2] = tested on: Anopheles funestus strain FUMOZ-R; assay: Anopheles test (ANPHFU surface treatment); conditions: read-out: efficacy (mortality in %)
Protocol: Anopheles Test (ANPHFU Surface Treatment)
as §1
(§2) To produce an appropriate active compound formulation, the active compound is dissolved in the solvent (2 mg/ml). The active compound formulation is pipetted onto a glazed tile and, after it has dried off, adult mosquitoes of the species Anopheles funestus strain FUMOZ-R (Hunt et al., Med Vet Entomol. 2005 Sep.; 19 (3):271-5) are placed onto the treated tile. The exposure time is 30 minutes.
(§3) 24 hours after contact with the treated surface, mortality in % is determined. 100% means that all mosquitoes have been killed; 0% means that none of the mosquitoes have been killed.

[3] = tested on: Anopheles gambiae strain RSPH (homozygot kdr); assay: Anopheles test (ANPHGB surface treatment); conditions: read-out: efficacy (mortality in %)
Protocol: Anopheles Test (ANPHGB Surface Treatment)
as §1
as §2, with “gambiae” for “funestus”, “RSPH (homozygot kdr)” for “FUMOZ-R (Hunt et al., Med Vet Entomol. 2005 Sep.; 19 (3):271-5)”
as §3

Lucilia cuprina = Lucilia cuprina test; conditions: application rate 100 ppm; L1 larvae; after 2 days
Protocol: (§4) Solvent: dimethyl sulfoxide
To produce a suitable active compound formulation, 10 mg of active compound are mixed with 0.5 ml of dimethyl sulfoxide, and the concentrate is diluted with water to the desired concentration.
About 20 L1 larvae of the Australian sheep blowfly (Lucilia cuprina) are transferred into a test vessel containing minced horsemeat and the active compound formulation of the desired concentration.
After 2 days, the kill in % is determined. 100% means that all the larvae have been killed; 0% means that no larvae have been killed.

Spodoptera frugiperda = Spodoptera frugiperda spray test; conditions: for pest or weed control at 500 g/ha: Spodoptera frugiperda, 168 h, read-out: efficacy
Protocol: Spodoptera frugiperda—Spray Test
(§5) Solvent: 78.0 parts by weight of acetone • • 1.5 parts by weight of dimethylformamide
(§6) Emulsifier: alkylaryl polyglycol ether
(§7) To produce a suitable active compound formulation, 1 part by weight of active compound is dissolved with the specified parts by weight of solvent and made up to the desired concentration with water containing an emulsifier concentration of 1000 ppm. To produce further test concentrations, the formulation is diluted with emulsifier-containing water.
Leaf discs of maize (Zea mays) are sprayed with an active compound formulation of the desired concentration and, after drying, populated with caterpillars of the fall armyworm (Spodoptera frugiperda).
After 7 days, the efficacy in % is determined. 100% means that all the caterpillars have been killed; 0% means that no caterpillar has been killed.

Boophilus microplus = Boophilus microplus injection test; conditions: for pest or weed control at 0.02 mg: Rhipicephalus microplus, 168 h
Protocol: Boophilus microplus—Injection Test
as §4
To produce a suitable active compound formulation, 10 mg of active compound are mixed with 0.5 ml of solvent and the concentrate is diluted to the desired concentration with solvent.
1 μl of the active compound solution is injected into the abdomen of 5 engorged adult female cattle ticks (Boophilus microplus). The animals are transferred into dishes and kept in a climate-controlled room.
Efficacy is assessed after 7 days by laying of fertile eggs. Eggs which are not visibly fertile are stored in a climate-controlled cabinet until the larvae hatch after about 42 days. An efficacy of 100% means that none of the ticks has laid any fertile eggs; 0% means that all the eggs are fertile.

Phaedon cochleariae = Phaedon cochleariae spray test; conditions: for pest or weed control at 500 g/ha: Phaedon cochleariae, 168 h, read-out: efficacy
Protocol: Phaedon cochleariae—Spray Test
as §5, §6, §7
Discs of Chinese cabbage leaves (Brassica pekinensis) are sprayed with an active compound formulation of the desired concentration and, after drying, populated with larvae of the mustard beetle (Phaedon cochleariae).
After 7 days, the efficacy in % is determined. 100% means that all the beetle larvae have been killed; 0% means that no beetle larvae have been killed.

Ctenocephalides felis [4] = assay: Ctenocephalides felis oral test; conditions: application rate 100 ppm in citrated cattle blood; after 2 days
Protocol: Ctenocephalides felis—Oral Test
as §4
To produce a suitable active compound formulation, 10 mg of active compound are mixed with 0.5 ml of dimethyl sulfoxide. Dilution with citrated cattle blood gives the desired concentration.
About 20 unfed adult cat fleas (Ctenocephalides felis) are placed into a chamber which is closed at the top and bottom with gauze. A metal cylinder whose bottom end is closed with parafilm is placed onto the chamber. The cylinder contains the blood/active compound formulation, which can be imbibed by the fleas through the parafilm membrane.
After 2 days, the kill in % is determined. 100% means that all of the fleas have been killed; 0% means that none of the fleas have been killed.

Ctenocephalides felis [5] = assay: Ctenocephalides felis in vitro contact test with adult cat fleas; conditions: application rate 5 μg/cm^2 (=500 g/ha); after 48 h
Protocol: Ctenocephalides felis—In Vitro Contact Tests with Adult Cat Fleas
(§8) For the coating of the test tubes, 9 mg of active compound are first dissolved in 1 ml of acetone p.a. and then diluted to the desired concentration with acetone p.a. 250 μl of the solution are distributed homogeneously on the inner walls and the base of a 25 ml glass tube by turning and rocking on an orbital shaker (rocking rotation at 30 rpm for 2 h). With 900 ppm of active compound solution and internal surface area 44.7 cm^2, given homogeneous distribution, an area-based dose of 5 μg/cm^2 is achieved.
After the solvent has evaporated off, the tubes are populated with 5-10 adult cat fleas (Ctenocephalides felis), sealed with a perforated plastic lid and incubated in a horizontal position at room temperature and ambient humidity. After 48 h, efficacy is determined. To this end, the tubes are stood upright and the fleas are knocked to the base of the tube. Fleas which remain motionless at the base or move in an uncoordinated manner are considered to be dead or moribund.
100% efficacy means that all the fleas were dead or moribund. 0% efficacy means that no fleas were harmed.

Rhipicephalus sanguineus = Rhipicephalus sanguineus in vitro contact test with adult brown dog ticks; conditions: application rate 5 μg/cm^2 (=500 g/ha); after 48 h
Protocol: Rhipicephalus sanguineus—In Vitro Contact Tests with Adult Brown Dog Ticks
as §8
After the solvent has evaporated off, the tubes are populated with 5-10 adult dog ticks (Rhipicephalus sanguineus), sealed with a perforated plastic lid and incubated in a horizontal position in the dark at room temperature and ambient humidity. After 48 h, efficacy is determined. To this end, the ticks are knocked to the base of the tube and incubated on a hotplate at 45-50° C. for not more than 5 min. Ticks which remain motionless on the base or move in such an uncoordinated manner that they are unable to deliberately avoid the heat by climbing upwards are considered to be dead or moribund.
An efficacy of 100% means that all the ticks were dead or moribund. 0% efficacy means that none of the ticks were harmed.

Tetranychus urticae = Tetranychus urticae spray test, OP-resistant; conditions: application rate 500 g/ha; after 6 days
Protocol: Tetranychus urticae—Spray Test, OP-Resistant
Solvent: 78.0 Parts by Weight of Acetone • • 1.5 parts by weight of dimethylformamide
as §6, §7
Discs of bean leaves (Phaseolus vulgaris) infested with all stages of the greenhouse red spider mite (Tetranychus urticae) are sprayed with an active compound formulation of the desired concentration.
After 6 days, the efficacy in % is determined. 100% means that all the spider mites have been killed; 0% means that no spider mites have been killed.

[6] = read-out: efficacy (laying of fertile eggs), application rate 20 μg/animal, after 7 days
[7] = application rate 500 g/ha, after 7 days
[8] = application rate 20 μg/animal, after 7 days
[9] = application rate 20 mg/m^2, exposure 30 minutes, 24 hours after contact

Structure (SMILES)	mortality at 20 mg/m2 [3] [%]	efficacy (kill in %) (Lucilia cuprina) [%]	pest or weed control at 0.02 mg (Boophilus microplus; [6]) [%]	efficacy (kill in %) (Ctenocephalides felis [4]) [%]	efficacy (fleas dead or moribund) (Ctenocephalides felis [5]) [%]	efficacy (ticks dead or moribund) (Rhipicephalus sanguineus) [%]	efficacy (Tetranychus urticae) [%]	efficacy (Spodoptera frugiperda; [7]) [%]	efficacy (laying of fertile eggs) (Boophilus microplus; [8]) [%]	other results
CON(C)CCOc1ccc(COc2ccc(Cl)c3ccccc23)c(F)n1 [Example 3, 2-[(5-{[(4-chloro-1-naphthyl)oxy]methyl}-6-fluoropyridin-2-yl)oxy]-N-methoxy-N-methylethanamine]	80 to 100	–	–	–	–	–	–	–	–	mortality at 100 mg/m2 [1]: 80 to 100%; mortality at 20 mg/m2 [2]: 80 to 100%; mortality at 100 mg/m2 [2]: 80 to 100%; mortality at 100 mg/m2 [3]: 80 to 100%
N#CCN1CCC(Oc2ccc(COc3ccc(Cl)c4ccccc34)cn2)C1 (centres unmarked) [Example 5, {3-[(5-{[(4-chloro-1-naphthyl)oxy]methyl}pyridin-2-yl)oxy]pyrrolidin-1-yl}acetonitrile]	80 to 100	100	100	–	–	–	–	–	–	pest or weed control at 500 g/ha (Spodoptera frugiperda): 83%; mortality at 20 mg/m2 [2]: 80 to 100%; pest or weed control at 500 g/ha (Phaedon cochleariae): 100%; mortality at 100 mg/m2 [3]: 80 to 100%
CON(C)CCOc1cnc(COc2ccc(Br)c3ccccc23)c(F)c1 [Example 21]	–	100	–	80	100	100	90	100	100	efficacy (Phaedon cochleariae; [7]): 100%
CN(CC#N)CCOc1cnc(COc2ccc3oc4ccccc4c3c2)c(F)c1 [Example 29, {[2-({6-[(dibenzo[b,d]furan-2-yloxy)methyl]-5-fluoropyridin-3-yl}oxy)ethyl](methyl)amino}acetonitrile]	80 to 100	100	100	100	–	–	–	–	–	pest or weed control at 500 g/ha (Spodoptera frugiperda): 100%; pest or weed control at 500 g/ha (Phaedon cochleariae): 100%
CON(C)CCOc1cnc(COc2ccc3oc4ccccc4c3c2)c(C)c1 [Example 30, 2-({6-[(dibenzo[b,d]furan-2-yloxy)methyl]-5-methylpyridin-3-yl}oxy)-N-methoxy-N-methylethanamine]	80 to 100	–	100	–	–	–	100	–	–	mortality at 20 mg/m2 [1]: 80 to 100%; mortality at 20 mg/m2 [2]: 80 to 100%; pest or weed control at 500 g/ha (Phaedon cochleariae): 83%
CON(C)CCOc1cnc(COc2ccc(Cl)c(-c3cccc(F)c3)c2)c(F)c1 [Example 61]	–	100	–	90	100	100	90	100	100	–
CON(C)CCOc1cnc(COc2ccc(Cl)c(-c3ccccc3)c2)c(F)c1 [Example 63]	–	100	–	95	100	100	100	100	100	efficacy (Phaedon cochleariae; application rate 100 g/ha, after 7 days): 100%
CON(C)CCOc1cnc(COc2ccc(F)c(-c3ccccc3)c2)c(F)c1 [Example 71, 2-[(5-fluoro-6-{[(6-fluorobiphenyl-3-yl)oxy]methyl}pyridin-3-yl)oxy]-N-methoxy-N-methylethanamine]	–	100	–	–	100	100	–	–	–	pest or weed control at 500 g/ha (Spodoptera frugiperda; [7]): 100%; mortality at 20 mg/m2 [1, 9]: 80 to 100%; mortality at 20 mg/m2 [2, 9]: 80 to 100%; pest or weed control at 0.02 mg (Boophilus microplus; application rate 20 μg/animal, after 7 days, read-out: efficacy (laying of fertile eggs)): 100%; pest or weed control at 500 g/ha (Phaedon cochleariae; [7]): 83%; mortality at 20 mg/m2 [3, 9]: 80 to 100%
CON(C)CCOc1cnc(COc2ccc(Cl)c(OC(F)(F)F)c2)c(F)c1 [Example 72]	–	100	–	95	100	100	100	83	100	–
COc1cc(OCCN(C)OC)cnc1COc1ccc2oc3ccccc3c2c1 [Example 90, 2-({6-[(dibenzo[b,d]furan-2-yloxy)methyl]-5-methoxypyridin-3-yl}oxy)-N-methoxy-N-methylethanamine]	–	80	100	–	–	–	–	–	–	pest or weed control at 500 g/ha (Spodoptera frugiperda): 83%; mortality at 20 mg/m2 [1]: 80 to 100%; mortality at 100 mg/m2 [1]: 80 to 100%; mortality at 100 mg/m2 [2]: 80 to 100%; mortality at 100 mg/m2 [3]: 80 to 100%
CCOc1nc(COc2cccc3c(Cl)c(Cl)ccc23)ccc1OCCN(C)OC [Example 97, 2-[(6-{[(5,6-dichloro-1-naphthyl)oxy]methyl}-2-ethoxypyridin-3-yl)oxy]-N-methoxy-N-methylethanamine]	–	–	–	–	–	–	–	–	–	mortality at 20 mg/m2 [1, 9]: 80 to 100%
